The values below come from patent US20260265265A1, “NOVEL BENZIMIDAZOLONE DERIVATIVE COMPOUND AS AUTOTAXIN INHIBITOR” (LG CHEM, LTD., priority 2023, published 2026).

This assay addresses T1, Recombinant Human ENPP-2/Autotaxin (Homo sapiens, UniProt Q13822).
T1 construct: purchased R&D systems 5255-EN
In words: LysoPLD activity measurement (autotaxin enzyme inhibition, choline release, TOOS reagent). Conditions: LysoPLD inhibitory activity; substrate 14:0 LysoPC; absorbance at 555 nm. In kind it is biochemical. As to the method: Such a measurement method is a method of measuring the amount of choline, which is a reaction product in an autotaxin enzyme reaction, using a TOOS reagent. Depending on the activity of the autotaxin inhibitor, the amount of choline produced as a reaction product varies, which affects the final absorbance.
After 30 min, 14:0 LysoPC of the substrate diluted to a concentration of 300 μM with the enzyme reaction buffer solution was dispensed into each well by 50 μL and allowed to stand at 37° C. for 90 minutes. At this time, negative control wells were dispensed with 1% DMSO, substrate, and autotaxin instead of the compound, and positive control wells were dispensed with 1% DMSO and substrate.
Broadly, the IC50 is the concentration needed to halve the response being measured. On to `O=C(O)c1cc(F)cc(Cn2c(=O)n(-c3ccccc3)c3cc(Cl)ccc32)c1` [Example 34, 3-((5-chloro-2-oxo-3-phenyl-2,3-dihydro-1H-benzo[d]imidazol-1-yl)methyl)-5-fluorobenzoic acid], for which the IC50 lay within 0.1 to 1 µM. For `O=C(O)c1cc(Cn2c(=O)n(-c3ccccc3)c3cc(Cl)ccc32)ccc1F` [Example 35, 5-((5-chloro-2-oxo-3-phenyl-2,3-dihydro-1H-benzo[d]imidazol-1-yl)methyl)-2-fluorobenzoic acid] the value was 0.1 to 1 µM; for `CN(C)C(=O)c1ccc(-n2c(=O)n(Cc3cccc(C(=O)O)c3)c3ccc(Cl)cc32)cc1F` [Example 36, 3-((5-chloro-3-(4-(dimethylcarbamoyl)-3-fluorophenyl)-2-oxo-2,3-dihydro-1H-benzo[d]imidazol-1-yl)methyl)benzoic acid], 0.01 to 0.1 µM; for `CN(C)c1ccc(-n2c(=O)n(Cc3cccc(C(=O)O)c3)c3cc(Cl)cc(F)c32)cc1` [Example 37, 3-((6-chloro-3-(4-(dimethylamino)phenyl)-4-fluoro-2-oxo-2,3-dihydro-1H-benzo[d]imidazol-1-yl)methyl)benzoic acid], 0.1 to 1 µM.

On to `CN(C)C(=O)c1ccc(-n2c(=O)n(Cc3cccc(C(=O)O)c3F)c3ccc(Cl)cc32)cc1` [Example 38, 3-((5-chloro-3-(4-(dimethylcarbamoyl)phenyl)-2-oxo-2,3-dihydro-1H-benzo[d]imidazol-1-yl)methyl)-2-fluorobenzoic acid], for which the IC50 was below 0.01 µM. For `CN(C)c1ccc(-n2c(=O)n(Cc3cccc(C(=O)O)c3F)c3ccc(Cl)cc32)cc1` [Example 39, 3-((5-chloro-3-(4-(dimethylamino)phenyl)-2-oxo-2,3-dihydro-1H-benzo[d]imidazol-1-yl)methyl)-2-fluorobenzoic acid] the value was 0.01 to 0.1 µM; for `CC(C)Oc1ccc(-n2c(=O)n(Cc3cccc(C(=O)O)c3F)c3ccc(Cl)cc32)cc1` [Example 40, 3-((5-chloro-3-(4-isopropoxyphenyl)-2-oxo-2,3-dihydro-1H-benzo[d]imidazol-1-yl)methyl)-2-fluorobenzoic acid], 0.01 to 0.1 µM; for `CS(=O)(=O)Nc1ccc(-n2c(=O)n(Cc3cccc(C(=O)O)c3F)c3ccc(Cl)cc32)cc1` [Example 41, 3-((5-chloro-3-(4-(methylsulfonamido)phenyl)-2-oxo-2,3-dihydro-1H-benzo[d]imidazol-1-yl)methyl)-2-fluorobenzoic acid], 0.01 to 0.1 µM. The same measure for `O=C(O)c1cccc(Cn2c(=O)n(-c3ccc(OCC4CC4)cc3)c3cc(Cl)ccc32)c1` [Example 42, 3-((5-chloro-3-(4-(cyclopropylmethoxy)phenyl)-2-oxo-2,3-dihydro-1H-benzo[d]imidazol-1-yl)methyl)benzoic acid]: 0.1 to 1 µM; for `O=C(O)c1cccc(Cn2c(=O)n(-c3ccc(C(=O)N4CCCCC4)cc3)c3cc(Cl)ccc32)c1` [Example 43, 3-((5-chloro-2-oxo-3-(4-(piperidine-1-carbonyl)phenyl)-2,3-dihydro-1H-benzo[d]imidazol-1-yl)methyl)benzoic acid]: below 0.01 µM. The same measure for `O=C(O)c1cccc(Cn2c(=O)n(-c3ccc(C(=O)N4CCOCC4)cc3)c3cc(Cl)ccc32)c1` [Example 44, 3-((5-chloro-3-(4-(morpholine-4-carbonyl)phenyl)-2-oxo-2,3-dihydro-1H-benzo[d]imidazol-1-yl)methyl)benzoic acid]: 0.01 to 0.1 µM; for `O=C(O)c1cccc(Cn2c(=O)n(-c3ccc(C(=O)N4CCCC4)cc3)c3cc(Cl)ccc32)c1` [Example 45, 3-((5-chloro-2-oxo-3-(4-(pyrrolidine-1-carbonyl)phenyl)-2,3-dihydro-1H-benzo[d]imidazol-1-yl)methyl)benzoic acid]: below 0.01 µM. Regarding `O=C(O)c1cccc(Cn2c(=O)n(-c3ccc(C(=O)O)cc3F)c3cc(Cl)ccc32)c1` [Example 46, 4-(3-(3-carboxybenzyl)-6-chloro-2-oxo-2,3-dihydro-1H-benzo[d]imidazol-1-yl)-3-fluorobenzoic acid], the IC50 was 0.1 to 1 µM. Turning to `O=C(O)c1cccc(Cn2c(=O)n(-c3ccc(N4CCOCC4)cc3)c3cc(Cl)ccc32)c1` [Example 47, 3-((5-chloro-3-(4-morpholinophenyl)-2-oxo-2,3-dihydro-1H-benzo[d]imidazol-1-yl)methyl)benzoic acid], the IC50 was in the range of 0.01 to 0.1 µM. The same measure for `O=C(O)c1cc(Cn2c(=O)n(-c3ccc(N4CCOCC4)cc3)c3c(F)c(Cl)ccc32)ccc1F` [Example 48, 5-((5-chloro-4-fluoro-3-(4-morpholinophenyl)-2-oxo-2,3-dihydro-1H-benzo[d]imidazol-1-yl)methyl)-2-fluorobenzoic acid]: 0.01 to 0.1 µM; for `O=C(O)c1cc(F)cc(Cn2c(=O)n(-c3ccc(N4CCOCC4)cc3)c3c(F)c(Cl)ccc32)c1` [Example 49, 3-((5-chloro-4-fluoro-3-(4-morpholinophenyl)-2-oxo-2,3-dihydro-1H-benzo[d]imidazol-1-yl)methyl)-5-fluorobenzoic acid]: 0.01 to 0.1 µM. For `O=C(O)c1ccc(F)c(Cn2c(=O)n(-c3ccc(N4CCOCC4)cc3)c3c(F)c(Cl)ccc32)c1` [Example 50, 3-((5-chloro-4-fluoro-3-(4-morpholinophenyl)-2-oxo-2,3-dihydro-1H-benzo[d]imidazol-1-yl)methyl)-4-fluorobenzoic acid] the value was 0.01 to 0.1 µM; for `O=C(O)c1cccc(Cn2c(=O)n(-c3ccc(N4CCOCC4)cc3)c3c(F)c(Cl)ccc32)c1F` [Example 51, 3-((5-chloro-4-fluoro-3-(4-morpholinophenyl)-2-oxo-2,3-dihydro-1H-benzo[d]imidazol-1-yl)methyl)-2-fluorobenzoic acid], below 0.01 µM. For `O=C(O)c1cccc(Cn2c(=O)n(-c3ccc(N4CCOCC4)cc3)c3c(F)c(Cl)ccc32)n1` [Example 52, 6-((5-chloro-4-fluoro-3-(4-morpholinophenyl)-2-oxo-2,3-dihydro-1H-benzo[d]imidazol-1-yl)methyl)picolinic acid] the value was 0.01 to 0.1 µM; for `O=C(O)c1cccc(Cn2c(=O)n(-c3ccc(N4CC(O)C4)cc3)c3c(F)c(Cl)ccc32)c1` [Example 53, 3-((5-chloro-4-fluoro-3-(4-(3-hydroxyazetidin-1-yl)phenyl)-2-oxo-2,3-dihydro-1H-benzo[d]imidazol-1-yl)methyl)benzoic acid], 0.01 to 0.1 µM; for `CN(C)C(=O)c1ccc(-n2c(=O)n(Cc3cccc(C(=O)O)c3)c3c(F)cc(Cl)cc32)cc1` [Example 54, 3-((5-chloro-3-(4-(dimethylcarbamoyl)phenyl)-7-fluoro-2-oxo-2,3-dihydro-1H-benzo[d]imidazol-1-yl)methyl)benzoic acid], below 0.01 µM. Take `CSc1ccc(-n2c(=O)n(Cc3cccc(C(=O)O)c3F)c3ccc(Cl)cc32)cc1` [Example 55, 3-((5-chloro-3-(4-(methylthio)phenyl)-2-oxo-2,3-dihydro-1H-benzo[d]imidazol-1-yl)methyl)-2-fluorobenzoic acid]: the IC50 was in the range of 0.01 to 0.1 µM. The same measure for `O=C(O)c1cccc(Cn2c(=O)n(-c3ccc(C(=O)N4CCCC4)cc3)c3cc(Cl)ccc32)c1F` [Example 56, 3-((5-chloro-2-oxo-3-(4-(pyrrolidine-1-carbonyl)phenyl)-2,3-dihydro-1H-benzo[d]imidazol-1-yl)methyl)-2-fluorobenzoic acid]: below 0.01 µM.
